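Growth conditions: 96-well plates. Treatment: test compound, 48 hours, 5 concentrations. Analysis: linear interpolation between bracketing concentrations; unreached endpoints set to highest concentration. The concentration for 50% growth inhibition is given as GI50.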 Calls of active or inactive are those of the source. Rule as the data show it: active = GI50 up to about 1.1 µM and inactive = higher.
Columns and labels:
Assay in all cases: DTP human tumour cell line panel, 48 h
NCI-H460 = system: NCI-H460
A549 = system: A549
K562 = system: K562
786-0 = system: 786-0
CAKI-1 = system: CAKI-1
MDA-MB-231 = system: MDA-MB-231
OVCAR-5 = system: OVCAR-5
LOX IMVI = system: LOX IMVI
TK-10 = system: TK-10
MCF7 = system: MCF7
Malme-3M = system: Malme-3M
MOLT-4 = system: MOLT-4
OVCAR-8 = system: OVCAR-8
BT-549 = system: BT-549
UO-31 = system: UO-31
SN12C = system: SN12C
HT-29 = system: HT-29
HCC 2998 = system: HCC 2998
HCT-116 = system: HCT-116
CCRF-CEM = system: CCRF-CEM

SMILES | GI50 (NCI-H460) | GI50 (A549) | GI50 (K562) | GI50 (786-0) | GI50 (CAKI-1) | GI50 (MDA-MB-231) | GI50 (OVCAR-5) | GI50 (LOX IMVI) | GI50 (TK-10) | GI50 (MCF7) | GI50 (Malme-3M) | GI50 (MOLT-4) | GI50 (OVCAR-8) | GI50 (BT-549) | GI50 (UO-31) | GI50 (SN12C) | GI50 (HT-29) | GI50 (HCC 2998) | GI50 (HCT-116) | GI50 (CCRF-CEM)
CC(C)(C)n1nc(C2CC2)cc1NC(=O)Nc1ccc(Cl)cc1 | > 100 µM (inactive) | > 100 µM (inactive) | > 100 µM (inactive) | > 100 µM (inactive) | > 100 µM (inactive) | > 100 µM (inactive) | > 100 µM (inactive) | > 100 µM (inactive) | > 100 µM (inactive) | > 100 µM (inactive) | > 100 µM (inactive) | > 100 µM (inactive) | > 100 µM (inactive) | > 100 µM (inactive) | > 100 µM (inactive) | > 100 µM (inactive) | > 100 µM (inactive) | > 100 µM (inactive) | > 100 µM (inactive) | 
O=c1c2cc([N+](=O)[O-])cnc2sn1-c1ccc(Br)cc1 | 66.8 µM (inactive) | 42.3 µM (inactive) |  | 30.5 µM (inactive) |  | 28.3 µM (inactive) | 38.4 µM (inactive) | 19.3 µM (inactive) | > 100 µM (inactive) | 26 µM (inactive) | 19.1 µM (inactive) | 32.8 µM (inactive) | > 100 µM (inactive) | 91.4 µM (inactive) | 51.3 µM (inactive) | 72.6 µM (inactive) | 27.2 µM (inactive) | 91 µM (inactive) | 19.5 µM (inactive) | 22.9 µM (inactive)
Cc1ccc(/C=C2\NC(=S)NC2=O)cc1 |  | > 100 µM (inactive) | > 100 µM (inactive) | > 100 µM (inactive) | > 100 µM (inactive) | > 100 µM (inactive) | > 100 µM (inactive) | 40.3 µM (inactive) | > 100 µM (inactive) | > 100 µM (inactive) | > 100 µM (inactive) | > 100 µM (inactive) | > 100 µM (inactive) | > 100 µM (inactive) | > 100 µM (inactive) | > 100 µM (inactive) | > 100 µM (inactive) | > 100 µM (inactive) | > 100 µM (inactive) | > 100 µM (inactive)
O=C1NC(N2CCCCC2)=N/C1=C\c1ccc(Cl)cc1 |  | 38.5 µM (inactive) |  | 28.7 µM (inactive) | > 100 µM (inactive) | 34.1 µM (inactive) | > 100 µM (inactive) | 34.5 µM (inactive) | 30.2 µM (inactive) | 47.2 µM (inactive) | 16.5 µM (inactive) | > 100 µM (inactive) | 20.2 µM (inactive) | 71.4 µM (inactive) | 34.7 µM (inactive) | 72.6 µM (inactive) | 16.6 µM (inactive) | 19.8 µM (inactive) | 26.5 µM (inactive) | 39.7 µM (inactive)
O=c1n(Cc2ccccc2)c(=O)n2c(=O)n(Cc3ccccc3)c(=O)n12 | > 100 µM (inactive) |  | > 100 µM (inactive) | > 100 µM (inactive) | > 100 µM (inactive) | > 100 µM (inactive) |  | > 100 µM (inactive) | > 100 µM (inactive) | > 100 µM (inactive) | > 100 µM (inactive) |  | > 100 µM (inactive) | > 100 µM (inactive) | > 100 µM (inactive) | > 100 µM (inactive) | 54.6 µM (inactive) | > 100 µM (inactive) | > 100 µM (inactive) | > 100 µM (inactive)
CNC(C#N)c1ccc(OC)cc1 (centres undefined) | > 100 µM (inactive) | > 100 µM (inactive) | 34.1 µM (inactive) | > 100 µM (inactive) | > 100 µM (inactive) | > 100 µM (inactive) | > 100 µM (inactive) | > 100 µM (inactive) | > 100 µM (inactive) | > 100 µM (inactive) | > 100 µM (inactive) | 43.7 µM (inactive) | > 100 µM (inactive) | > 100 µM (inactive) | > 100 µM (inactive) | > 100 µM (inactive) | 61.1 µM (inactive) | > 100 µM (inactive) | 57 µM (inactive) | 53.3 µM (inactive)
CC(=O)OCC(OC(C)=O)C(OC(C)=O)C(OC(C)=O)C(C=NN(C(C)=O)S(=O)(=O)c1ccc(/C=C2\NC(=O)N(C)C2=O)cc1)OC(C)=O (centres undefined) | 18.8 µM (inactive) | 47 µM (inactive) | 36.3 µM (inactive) | 23.7 µM (inactive) | 45.4 µM (inactive) | 33.5 µM (inactive) | 37.8 µM (inactive) | 11.9 µM (inactive) |  | 30.2 µM (inactive) | 17.5 µM (inactive) | 10.6 µM (inactive) | 27.2 µM (inactive) | 12.4 µM (inactive) | 35.9 µM (inactive) | 30.6 µM (inactive) | 24.7 µM (inactive) | 16.3 µM (inactive) | 17.1 µM (inactive) | 
BrC1(c2ccccc2)C[n+]2c(-c3ccccc3)cc(-c3ccccc3)cc2-c2ccccc21 (centres undefined) | 0.444 µM (active) | 0.929 µM (active) | 0.159 µM (active) | 0.661 µM (active) | 3.66 µM (inactive) | 0.336 µM (active) | 1.27 µM (inactive) | 0.363 µM (active) | 1.73 µM (inactive) | 0.184 µM (active) | 0.441 µM (active) | 0.631 µM (active) | 0.36 µM (active) | 0.407 µM (active) | 1.35 µM (inactive) | 3.88 µM (inactive) | 0.34 µM (active) | 0.111 µM (active) | 0.365 µM (active) | 0.52 µM (active)

Source: ChEMBL document CHEMBL1201862, “PubChem BioAssay data set” (2004)
